Here are results for three molecules from patent US20240041042A1, “1-(PYRIDYL)-5-AZINYLPYRAZOLE DERIVATIVES, AND THEIR USE FOR CONTROL OF UNDESIRED PLANT GROWTH” (Bayer Aktiengesellschaft, priority 2020, published 2024).

Molecules are shown by their SMILES. Like-named read-outs stand apart in the source and are kept apart here.

What all share (type): in vivo
Data set [1] has as its system Alopecurus myosuroides (ALOMY). Briefly: Post-emergence herbicidal action against ALOMY. The conditions noted are these: visual rating about 3 weeks after treatment vs untreated controls (100% = plants have died, 0% = like control plants). The procedure, abridged:
(§1)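 Post-emergence greenhouse spray, one-leaf stage, 600 l/ha water plus 0.5% additive; WP or EC formulations; application rates 320 g/ha or lower. Visual % damage vs untreated controls at ~3 weeks.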

Data set [2] has as its system Setaria viridis (SETVI). Kind of data set: Post-emergence herbicidal action against SETVI. The procedure, abridged:
as §1

The subject of data set [3] is Pharbitis purpurea (PHBPU). Briefly: Pre-emergence herbicidal action against PHBPU. The conditions noted are these: dosage 320 g/ha. The procedure, abridged:
(§2)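 Pre-emergence soil-surface spray of compound, formulated as wettable powder or emulsion concentrate, in aqueous suspension or emulsion with 0.5% additive (600 l/ha; rate 320 g/ha or less). Activity rated visually after roughly 3 weeks in the greenhouse as a percentage of untreated controls, 0% meaning no difference.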

Data set [4] has as its system Avena fatua (AVEFA). Kind of data set: Post-emergence herbicidal action against AVEFA. The conditions noted are these: visual rating about 3 weeks after treatment. The procedure, abridged: as §1
Data set [5] deals with Lolium rigidum (LOLRI). Briefly: Pre-emergence herbicidal action against LOLRI. The conditions noted are these: dosage 320 g/ha. The procedure, abridged:
as §2

Data set [6] has as its system Alopecurus myosuroides (ALOMY). Briefly: Pre-emergence herbicidal action against ALOMY. The conditions noted are these: scored visually after about 3 weeks, 100% = plants have died. The procedure, abridged: as §2
In data set [7] the test system is Matricaria inodora (MATIN). Briefly: Pre-emergence herbicidal action against MATIN. The procedure, abridged:
as §2

The subject of data set [8] is Viola tricolor (VIOTR). Briefly: Pre-emergence herbicidal action against VIOTR. The following applies: 320 g/ha, Viola tricolor. The procedure, abridged:
as §2

Data set [9] deals with Setaria viridis (SETVI). Briefly: Pre-emergence herbicidal action against SETVI. The procedure, abridged:
as §2

The test system of data set [10] is Echinochloa crus-galli (ECHCG). Kind of data set: Pre-emergence herbicidal action against ECHCG. The procedure, abridged:
as §2

The test system of data set [11] is Amaranthus retroflexus (AMARE). Briefly: Pre-emergence herbicidal action against AMARE. The following applies: visual scoring after about 3 weeks vs untreated controls. The procedure, abridged:
as §2

Data set [12] relates to Abutilon theophrasti (ABUTH). Kind of data set: Post-emergence herbicidal action against ABUTH. The conditions noted are these: visual rating about 3 weeks after treatment vs untreated controls (100% = plants have died, 0% = like control plants). The procedure, abridged:
as §1

Data set [13] deals with Polygonum convolvulus (POLCO). Kind of data set: Post-emergence herbicidal action against POLCO. The procedure, abridged: as §1
The test system of data set [14] is Avena fatua (AVEFA). Kind of data set: Pre-emergence herbicidal action against AVEFA. The following applies: visual scoring after about 3 weeks vs untreated controls. The procedure, abridged:
as §2

Data set [15] deals with Verconica persica (VERPE). Briefly: Post-emergence herbicidal action against VERPE. The procedure, abridged: as §1
In data set [16] the test system is Polygonum convolvulus (POLCO). Kind of data set: Pre-emergence herbicidal action against POLCO. The following applies: dosage 320 g/ha. The procedure, abridged:
as §2

Data set [17] concerns Amaranthus retroflexus (AMARE). Briefly: Post-emergence herbicidal action against AMARE. The conditions noted are these: 80 g/ha, visual rating about 3 weeks after treatment vs untreated controls (100% = plants have died, 0% = like control plants). The procedure, abridged:
as §1

Data set [18] concerns Pharbitis purpurea (PHBPU). Briefly: Post-emergence herbicidal action against PHBPU. The procedure, abridged:
as §1

Data set [19] has as its system Echinochloa crus-galli (ECHCG). Kind of data set: Post-emergence herbicidal action against ECHCG. The procedure, abridged:
as §1

Data set [20] deals with Lolium rigidum (LOLRI). Briefly: Post-emergence herbicidal action against LOLRI. The procedure, abridged: as §1
The next data set has as its system Oryza sativa (ORYSA). The conditions noted are these: crop plant compatibility. The procedure, abridged: (§3)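 Greenhouse crops in sandy loam sprayed post-emergence at the one-leaf stage, 2–3 weeks after sowing, with WP or EC formulations in water plus 0.5% additive at 600 l/ha. Damage rated visually about 3 weeks later versus untreated controls (0% = like control, 100% = dead); suffixes a–c denote different doses.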

The subject of a further data set is Zea mays (ZEAMX). The conditions noted are these: for Post-emergence action against ZEAMX in % (crop plant compatibility): 20 g/ha, effect in comparison to untreated controls. The procedure, abridged: as §3
For data set [21], the system named is Verconica persica (VERPE). Briefly: Pre-emergence herbicidal action against VERPE. The following applies: dosage 320 g/ha. The procedure, abridged:
as §2

Data set [22] concerns Matricaria inodora (MATIN). Kind of data set: Post-emergence herbicidal action against MATIN. The conditions noted are these: dosage 80 g/ha. The procedure, abridged: as §1
The subject of data set [23] is Viola tricolor (VIOTR). Briefly: Post-emergence herbicidal action against VIOTR. The procedure, abridged:
as §1

Data set [24] relates to Digitaria sanguinalis (DIGSA). Kind of data set: Post-emergence herbicidal action against DIGSA. The following applies: visual rating about 3 weeks after treatment. How it is done: Seeds of monocotyledonous and dicotyledonous weeds and crop plants are placed in sandy loam in plastic or organic planting pots, covered with soil and cultivated in a greenhouse under controlled growth conditions. 2 to 3 weeks after sowing, the test plants are treated at the one-leaf stage. The compounds of the invention, formulated in the form of wettable powders (WP) or as emulsion concentrates (EC), are then sprayed onto the green parts of the plants as aqueous suspension or emulsion with addition of 0.5% additive at a water application rate of 600 l/ha (converted). After the test plants have been kept in the greenhouse under optimum growth conditions for about 3 weeks, the activity of the preparations is rated visually in comparison to untreated controls. For example, 100% activity=the plants have died, 0% activity=like control plants.
Tables B1 to B13 below show the effects of selected compounds of the general formula (I) according to Table 1 on various harmful plants and at an application rate corresponding to 320 g/ha or lower, which were obtained by the experimental procedure mentioned above. The appendices “a”, “b” and “c” give differentiation by dosage used with otherwise the same harmful plants tested.

The mark [25] stands for this setting: 20 g/ha, effect vs untreated controls.
Setting [26] is: 80 g/ha, effect in comparison to untreated controls.

For the molecule `CCOC(=O)COc1nn(-c2ccccn2)c(-c2ccc(F)nc2)c1Cl` [Example I-100], the “Post-emergence action against ALOMY in %” value in data set [1] (80 g/ha) is 100%. In addition, the “Post-emergence action against SETVI in %” value in the data set on Setaria viridis (SETVI) [2] (dosage 80 g/ha) was determined as 80%. Also, the “Pre-emergence action against PHBPU in %” value in data set [3] is 90%. The “Post-emergence action against AVEFA in %” value in the data set on Avena fatua (AVEFA) [4] (80 g/ha) came to 100%. Moreover, the “Pre-emergence action against LOLRI in %” value in the data set on Lolium rigidum (LOLRI) [5] came out at 100%. The “Pre-emergence action against ALOMY” value in data set [6] (80 g/ha) and in data set [6] (320 g/ha) was 100% in each case. For the same molecule, the “Pre-emergence action against MATIN in %” value in [7] (dosage 80 g/ha) and in [7] (dosage 320 g/ha) was 80% in each case. The “Pre-emergence action against VIOTR in %” value in the data set with Viola tricolor (VIOTR) [8] was found to be 90%. Further, the “Pre-emergence action against SETVI in %” value is 90% with Setaria viridis (SETVI) [9] (dosage 80 g/ha) and 100% with Setaria viridis (SETVI) [9] (dosage 320 g/ha). Moreover, the “Pre-emergence action against ECHCG in %” value in [10] (dosage 80 g/ha) turned out to be 80%; in data set [10] (dosage 320 g/ha) it was 100%. Also, the “Pre-emergence action against AMARE in %” value in data set [11] (80 g/ha) is listed as 90%; in data set [11] (320 g/ha), 100%. In addition, the “Post-emergence action against ABUTH in %” value in [12] (80 g/ha) is 80%. Further, the “Post-emergence action against POLCO in %” value in [13] (dosage 80 g/ha) turned out to be 90%. Besides, the “Pre-emergence action against AVEFA in %” value with Avena fatua (AVEFA) [14] (80 g/ha) is listed as 80%; in the data set on Avena fatua (AVEFA) [14] (320 g/ha) it was 90%. For the same molecule, the “Post-emergence action against VERPE in %” value in data set [15] (dosage 80 g/ha) worked out at 80%. Moreover, in data set [16], the “Pre-emergence action against POLCO in %” value amounted to 90%. For the same molecule, the “Post-emergence action against AMARE in %” value in data set [17] is reported as 90%. In addition, the “Post-emergence action against PHBPU in %” value in [18] (dosage 80 g/ha) came out at 90%. Also, the “Post-emergence action against ECHCG in %” value in data set [19] (dosage 80 g/ha) was determined as 90%. Also, the “Post-emergence action against LOLRI in %” value in the data set with Lolium rigidum (LOLRI) [20] (dosage 80 g/ha) turned out to be 80%. Further, the “Post-emergence action against ORYSA in %” value in the data set on Oryza sativa (ORYSA) (setting [25]) came to 0%. The “Post-emergence action against ZEAMX in % (crop plant compatibility)” value with Zea mays (ZEAMX) turned out to be 10%. For the same molecule, in data set [21], the “Pre-emergence action against VERPE in %” value was determined as 100%. Moreover, in [22], the “Post-emergence action against MATIN in %” value is on record as 90%.
For the molecule `COC(=O)C(C)COC(=O)COc1nn(-c2ncccc2F)c(-c2ccc(F)nc2)c1C1CC1` (stereo not drawn) [Example I-382], the “Post-emergence action against VIOTR in %” value with Viola tricolor (VIOTR) [23] (80 g/ha) is given as 80%; in the data set with Viola tricolor (VIOTR) [23] (320 g/ha), 90%. Further, the “Post-emergence action against ALOMY in %” value in data set [1] (320 g/ha) is 90%. Besides, the “Post-emergence action against SETVI in %” value with Setaria viridis (SETVI) [2] (dosage 80 g/ha) and in the data set on Setaria viridis (SETVI) [2] (dosage 320 g/ha) was 90% throughout. Also, the “Post-emergence action against AVEFA in %” value with Avena fatua (AVEFA) [4] (80 g/ha) and in the data set with Avena fatua (AVEFA) [4] (320 g/ha) was 90% each time. Further, the figures for the “Post-emergence action against DIGSA in %” value in data set [24] (80 g/ha) and in data set [24] (320 g/ha) were 80% and 90%, respectively. Also, in data set [13] (dosage 320 g/ha), the “Post-emergence action against POLCO in %” value stood at 80%. The “Post-emergence action against VERPE in %” value in data set [15] (320 g/ha, VERPE) was 80%; in data set [15] (dosage 80 g/ha), 80%. In addition, the “Post-emergence action against PHBPU in %” value in data set [18] (dosage 80 g/ha) and in data set [18] (dosage 320 g/ha) was 80% in each case. The “Post-emergence action against ECHCG in %” value in [19] (dosage 80 g/ha) amounted to 80%; in data set [19] (dosage 320 g/ha) it was 90%. Also, in the data set on Lolium rigidum (LOLRI) [20] (dosage 320 g/ha), the “Post-emergence action against LOLRI in %” value is recorded as 90%. Also, the “Post-emergence action against ORYSA in %” value in the data set on Oryza sativa (ORYSA) (setting [25]) was 0%; in the data set on Oryza sativa (ORYSA) (setting [26]) it was 10%. Moreover, the “Post-emergence action against ZEAMX in % (crop plant compatibility)” value in the data set with Zea mays (ZEAMX) is 0%. The “Post-emergence action against ZEAMX in %” value in the data set with Zea mays (ZEAMX) (crop plant compatibility, 80 g/ha, effect vs untreated controls) is 20%.
Consider `C[C@@H](Oc1nn(-c2ccccn2)c(-c2ccc(F)nc2)c1Br)C(=O)O` [Example I-260], for which the “Post-emergence action against ALOMY in %” value in data set [1] (320 g/ha) is listed as 90%. Moreover, the “Post-emergence action against SETVI in %” value in the data set with Setaria viridis (SETVI) [2] (dosage 320 g/ha) amounted to 90%. Besides, the “Post-emergence action against AVEFA in %” value in the data set with Avena fatua (AVEFA) [4] (80 g/ha) and in the data set on Avena fatua (AVEFA) [4] (320 g/ha) was 80% each time. The “Post-emergence action against DIGSA in %” value in data set [24] (80 g/ha) and in data set [24] (320 g/ha) was 90% each time. For the same molecule, the “Post-emergence action against ABUTH in %” value in [12] (320 g/ha) was 80%. Moreover, the “Post-emergence action against POLCO in %” value in [13] (dosage 80 g/ha) and in [13] (dosage 320 g/ha) was 80% each time. In data set [15] (320 g/ha, VERPE), the “Post-emergence action against VERPE in %” value was determined as 80%. Besides, in data set [18] (dosage 320 g/ha), the “Post-emergence action against PHBPU in %” value worked out at 80%. Further, the “Post-emergence action against ECHCG in %” value in data set [19] (dosage 320 g/ha) was found to be 90%. Moreover, in the data set with Lolium rigidum (LOLRI) [20] (dosage 320 g/ha), the “Post-emergence action against LOLRI in %” value is on record as 80%. Moreover, the “Post-emergence action against ORYSA in %” value in the data set on Oryza sativa (ORYSA) (setting [25]) and in the data set with Oryza sativa (ORYSA) (setting [26]) was 10% in each case.
